Data on 32 molecules can be found in patent US9981960B2, “Pyrrolidine compound and application as melanocortin receptor agonist” (MITSUBISHI TANABE PHARMA CORPORATION, priority 2014, dated 2018).

This assay addresses T1, Human MC1R (Homo sapiens, UniProt Q01726).
T1 construct: endogenous in cells; host or cells: human melanoma cell line HBL
Description: MCR agonist measurement (cAMP measurement), human MC1R agonist activity in human melanoma cell line HBL. It counts as cell-based. The note with it: HBL cells; for EC50: 37° C. for 30 minutes, intracellular cAMP by fluorescence method; for Human MC1R IA %: Intrinsic Activity, vehicle cAMP = 0%, αMSH at 10^-6 M = 100%. The method, then: (1) Method for Culturing Cells
Human MC1R agonist activity measurement was carried out by using human melanoma cell line HBL. Culture of HBL: F-10 Nutrient Mixture containing 10% FCS and Penicillin-streptomycin was used in the culture.
(2) cAMP Assay and Data Calculation
Each compound solution having each concentration was mixed with cAMP assay buffer (HBSS (Hank's Balanced Salt Solution) containing 10 mM HEPES and 0.1% BSA), and dispensed into 96 well plate. HBL was suspended in cAMP assay buffer containing 0.5 mM IBMX so that the concentrate became 5×10^4/mL, dispensed into the above 96 well plate, then mixed, left to stand at 37° C. for 30 minutes, and then the intracellular […] concentration was measured by fluorescence method using Envision (ex. 320 nm, em. 590 nm and 665 nm).

T1 sequence (Q01726 whole entry): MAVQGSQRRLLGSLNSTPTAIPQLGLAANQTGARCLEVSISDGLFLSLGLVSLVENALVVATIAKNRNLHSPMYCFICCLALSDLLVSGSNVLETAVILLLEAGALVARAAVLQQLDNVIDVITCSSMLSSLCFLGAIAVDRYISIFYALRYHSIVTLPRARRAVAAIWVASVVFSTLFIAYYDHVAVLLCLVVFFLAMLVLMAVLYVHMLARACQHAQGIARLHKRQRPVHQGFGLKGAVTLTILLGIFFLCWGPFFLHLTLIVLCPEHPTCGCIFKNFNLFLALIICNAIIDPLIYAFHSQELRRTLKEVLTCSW

On to `COC[C@H]1CN(C(=O)[C@]2(F)CN(c3ccc(C)nn3)C[C@H]2c2ccc(OC)cc2)C[C@@H]1c1ccc(C(F)(F)F)cc1N1CCC(C(=O)O)CC1` [Example 63], for which the EC50 (commonly the concentration that produces a half-maximal response) stood at 24 nM and the “Human MC1R IA %” value amounted to 92%.

In the case of `CNC(=O)C1CCN(c2cc(C(F)(F)F)ccc2C2CCN(C(=O)[C@]3(F)CN(C(C)(C)C)C[C@H]3c3ccc(OC)cc3)CC2)CC1.Cl.Cl` [Example 231, 1-[2-(1-{[(3R,4R)-1-tert-butyl-3-fluoro-4-(4-methoxyphenyl)pyrrolidin-3-yl]carbonyl}piperidin-4-yl)-5-(trifluoromethyl)phenyl]-N-methylpiperidine-4-carboxamide dihydrochloride], the EC50 turned out to be 11 nM and the “Human MC1R IA %” value is given as 82%.

Take `COC[C@H]1CN(C(=O)[C@]2(F)CN(C3CCCC3)C[C@H]2c2ccc(OC)cc2)C[C@@H]1c1ccc(C(F)(F)F)cc1N1CCC(C(=O)N2CCC[C@@H]2C(=O)O)CC1` [Example 270]: the EC50 worked out at 5.6 nM and the “Human MC1R IA %” value is 82%.

With `COC[C@@H]1C[C@@H](c2ccc(C(F)(F)F)cc2N2CCC(C(=O)O)CC2)CN1C(=O)[C@]1(F)CN([C@H]2CC[C@H](C#N)CC2)C[C@H]1c1ccc(OC)cc1` [Example 143], the EC50 is 0.76 nM and the “Human MC1R IA %” value is reported as 96%.

For the molecule `COC[C@@]1(OC)CN(C(=O)[C@]2(F)CN([C@H]3CC[C@H](OC)CC3)C[C@H]2c2ccc(OC)cc2)C[C@@H]1c1ccc(C(F)(F)F)cc1N1CCC(C(=O)O)CC1` [Example 156], the EC50 turned out to be 29 nM and the “Human MC1R IA %” value is given as 83%.

In the case of `COc1ccc([C@@H]2CN(C(C)(C)C)C[C@@]2(F)C(=O)N2CC(c3ccc(C(F)(F)F)cc3N3CCC(C(=O)N(C)C)CC3)C2)cc1` [Example 249], the EC50 came to 37 nM and the “Human MC1R IA %” value was 149%.

With `COC[C@@H]1C[C@@H](c2ccc(C(F)(F)F)cc2N2CCC(C(=O)O)CC2)CN1C(=O)[C@]1(OC)CN([C@H]2CC[C@H](OC(C)C)CC2)C[C@H]1c1ccc(OC)cc1` [Example 160], the EC50 was 0.67 nM and the “Human MC1R IA %” value was 106%.

As to `COC[C@@H]1C[C@@H](c2ccc(C(F)(F)F)cc2N2CCC(C(=O)O)CC2)CN1C(=O)[C@]1(F)CN(C2CCCCC2)C[C@H]1c1ccc(OC)cc1` [Example 138], the midpoint of the response, the EC50, lay at 0.98 nM and the “Human MC1R IA %” value is on record as 111%.

As to `COc1ccc([C@@H]2CN(C(C)(C)C)C[C@@]2(F)C(=O)N2CCC(c3ccc(C(F)(F)F)cc3OCCCc3nnn[nH]3)CC2)cc1.Cl` [Example 280, [(3R,4R)-1-tert-butyl-3-fluoro-4-(4-methoxyphenyl)pyrrolidin-3-yl](4-{2-[3-(1H-tetrazol-5-yl)propoxy]-4-(trifluoromethyl)phenyl}piperidin-1-yl)methanone hydrochloride], the EC50 turned out to be 42 nM and the “Human MC1R IA %” value came out at 86%.

In the case of `COc1ccc([C@@H]2CN([C@H]3CC[C@H](OC)CC3)C[C@@]2(F)C(=O)N2C[C@H](c3ccc(C(F)(F)F)cc3N3CCC(C(=O)O)CC3)[C@@H](F)C2)cc1` [Example 148], the response was half-maximal at 3.6 nM (EC50) and the “Human MC1R IA %” value stood at 93%.

`COC[C@@H]1C[C@@H](c2ccc(C(F)(F)F)cc2N2CCC(C(=O)O)CC2)CN1C(=O)[C@]1(F)CN([C@H]2CC[C@H](OC)CC2)C[C@H]1c1ccc(OC)cc1` [Example 135]: the EC50 was determined as 0.47 nM and the “Human MC1R IA %” value amounted to 96%.

`CCC(=O)N1CCC(N2C[C@@H](c3ccc(OC)cc3)[C@](F)(C(=O)N3C[C@H](COC)[C@@H](c4ccc(C(F)(F)F)cc4N4CCC(C(=O)O)CC4)C3)C2)CC1` [Example 327]: the concentration for a half-maximal effect (EC50) worked out at 23 nM and the “Human MC1R IA %” value turned out to be 67%.

In the case of `COC[C@H]1CN(C(=O)[C@]2(F)CN(C3CCCCC3)C[C@H]2c2ccc(OC)cc2)C[C@@H]1c1ccc(C(F)(F)F)cc1N1CCC(C(=O)O)CC1` [Example 27], the EC50 was 6.5 nM and the “Human MC1R IA %” value worked out at 78%.

Turning to `COc1ccc([C@@H]2CN(C(C)(C)C)C[C@@]2(F)C(=O)N2C[C@H](CO)[C@@H](c3ccc(C(F)(F)F)cc3N3CCC(C(=O)O)CC3)C2)cc1.Cl.Cl` [Example 224, 1-{2-[(3S,4R)-1-{[(3R,4R)-1-tert-butyl-3-fluoro-4-(4-methoxyphenyl)pyrrolidin-3-yl]carbonyl}-4-(hydroxymethyl)pyrrolidin-3-yl]-5-(trifluoromethyl)phenyl}piperidine-4-carboxylic acid dihydrochloride], the EC50 is 11 nM and the “Human MC1R IA %” value is given as 109%.

With `COc1ccc([C@@H]2CN(C3CCOC3)C[C@@]2(F)C(=O)N2CCC(c3ccc(C(F)(F)F)cc3N3CCC(C(=O)O)CC3)CC2)cc1` (stereo partly drawn) [Example 290], a half-maximal response (EC50) required 115 nM and the “Human MC1R IA %” value stood at 69%.

In the case of `COC[C@H]1CN(C(=O)[C@]2(F)CN([C@H]3CC[C@H](OC)CC3)C[C@H]2c2ccc(OC)cc2)C[C@@H]1c1ccc(C(F)(F)F)cc1N1CCC(C(=O)O)CC1` [Example 99], the midpoint of the response, the EC50, lay at 4.7 nM and the “Human MC1R IA %” value is reported as 117%.

In the case of `COC[C@@]1(F)CN(C(=O)[C@]2(F)CN([C@H]3CC[C@H](OC)CC3)C[C@H]2c2ccc(OC)cc2)C[C@@H]1c1ccc(C(F)(F)F)cc1N1CCC(C(=O)O)CC1` [Example 120], the response was half-maximal at 8.8 nM (EC50) and the “Human MC1R IA %” value was 109%.

Regarding `COC[C@H]1CN(C(=O)[C@]2(F)CN(C3CCOCC3)C[C@H]2c2ccc(OC)cc2)C[C@@H]1c1ccc(C(F)(F)F)cc1N1CCC(C(=O)O)CC1` [Example 95], the midpoint of the response, the EC50, lay at 12 nM and the “Human MC1R IA %” value came to 72%.

As to `COc1ccc([C@@H]2CN(C(C)(C)C)C[C@@]2(F)C(=O)N2CC[C@H](c3ccc(C(F)(F)F)cc3N3CCC(C(=O)O)CC3)C2)cc1.Cl.Cl` [Example 286b, 1-{2-[(3R)-1-{[(3R,4R)-1-tert-butyl-3-fluoro-4-(4-methoxyphenyl)pyrrolidin-3-yl]carbonyl}pyrrolidin-3-yl]-5-(trifluoromethyl)phenyl}piperidine-4-carboxylic acid dihydrochloride], it took 189 nM to reach a half-maximal effect (EC50) and the “Human MC1R IA %” value came to 71%.

For the molecule `COC[C@@H]1C[C@@H](c2ccc(C(F)(F)F)cc2N2CCC(C(=O)O)CC2)CN1C(=O)[C@]1(F)CN(C2CCOCC2)C[C@H]1c1ccc(OC)cc1` [Example 137], the EC50 was 7.3 nM and the “Human MC1R IA %” value is 106%.

For `COC[C@@H]1C[C@@H](c2ccc(C(F)(F)F)cc2N2CCC(C(=O)O)CC2)CN1C(=O)[C@]1(F)CN(c2ccnc(C)n2)C[C@H]1c1ccc(OC)cc1` [Example 67], the EC50 was found to be 2 nM and the “Human MC1R IA %” value is 78%.

Take `COC[C@H]1CN(C(=O)[C@]2(F)CN([C@H]3CC[C@H](OC)CC3)C[C@H]2c2ccc(OC)cc2)C[C@@H]1c1ccc(C(F)(F)F)cc1N1CCC(C)(C(=O)O)CC1` [Example 103]: the EC50 stood at 14 nM and the “Human MC1R IA %” value amounted to 102%.

For `COc1ccc([C@@H]2CN(C(C)(C)C)C[C@@]2(F)C(=O)N2CC[C@@H](c3ccc(C(F)(F)F)cc3N3CCC(C(=O)O)CC3)C2)cc1.Cl.Cl` [Example 286a, 1-{2-[(3S)-1-{[(3R,4R)-1-tert-butyl-3-fluoro-4-(4-methoxyphenyl)pyrrolidin-3-yl]carbonyl}pyrrolidin-3-yl]-5-(trifluoromethyl)phenyl}piperidine-4-carboxylic acid dihydrochloride], the EC50 was 4.4 nM and the “Human MC1R IA %” value worked out at 105%.

`COc1ccc([C@@H]2CN(C(C)(C)C)C[C@@]2(F)C(=O)N2CCC(c3ccc(C(F)(F)F)cc3[C@H]3CC[C@H](C(=O)O)CC3)CC2)cc1` [Example 85]: the midpoint of the response, the EC50, lay at 60 nM and the “Human MC1R IA %” value was 75%.

On to `COc1ccc([C@@H]2CN(C(C)(C)C)C[C@@]2(F)C(=O)N2CCC(c3ccc(C(F)(F)F)cc3N3C[C@@H]4[C@H](C3)[C@H]4C(=O)O)CC2)cc1` [Example 94], for which the response was half-maximal at 49 nM (EC50) and the “Human MC1R IA %” value is 83%.

On to `COC[C@H]1CN(C(=O)[C@]2(F)CN(C3CCCC3)C[C@H]2c2ccc(OC)cc2)C[C@@H]1c1ccc(C(F)(F)F)cc1N1CCC(C(=O)O)CC1` [Example 19], for which the “Human MC1R IA %” value stood at 88%.

Take `COc1ccc([C@@H]2CN(C3CCCC3)C[C@@]2(F)C(=O)N2CCC=C(c3ccc(C(F)(F)F)cc3N3CCC(C(=O)O)CC3)C2)cc1` [Example 163]: it took 20 nM to reach a half-maximal effect (EC50) and the “Human MC1R IA %” value is 36%.

With `COc1ccc([C@@H]2CN(C(C)(C)C)C[C@@]2(F)C(=O)N2CCC(c3ccc(C(F)(F)F)cc3-c3nc(C(=O)O)co3)CC2)cc1` [Example 79], the EC50 came to 67 nM and the “Human MC1R IA %” value is reported as 103%.

Consider `COC[C@H]1CN(C(=O)[C@]2(F)CN(C3CCCC3)C[C@H]2c2ccc(OC)cc2)C[C@@H]1c1ccc(OC(F)(F)F)cc1N1CCC(C(=O)O)CC1` [Example 130], for which the response was half-maximal at 11 nM (EC50) and the “Human MC1R IA %” value was 76%.

Consider `COC[C@H]1CN(C(=O)[C@]2(F)CN(C3CCCC3)C[C@H]2c2ccc(OC)cc2)C[C@@H]1c1cc(F)c(F)cc1N1CCC(C(=O)O)CC1` [Example 201], for which the EC50 is 31 nM and the “Human MC1R IA %” value was determined as 107%.

`COc1ccc([C@@H]2CN(C(C)(C)CO)C[C@@]2(F)C(=O)N2CCC(c3ccc(C(F)(F)F)cc3N3CCC(C(=O)O)CC3)CC2)cc1` [Example 320]: a half-maximal effect (EC50) was put at 30 nM and the “Human MC1R IA %” value is recorded as 79%.

Regarding `COc1ccc([C@@H]2CN(C(C)(C)C)C[C@@]2(F)C(=O)N2CCC(c3ccc(C(F)(F)F)cc3N3CCC(C(=O)N(C)C)CC3)CC2)cc1` [Example 234], the EC50 turned out to be 7.3 nM and the “Human MC1R IA %” value is listed as 105%.
